In patent US20180000085A1, “USE OF PICOLINAMIDE COMPOUNDS WITH FUNGICIDAL ACTIVITY” (DOW AGROSCIENCES LLC, priority 2014, published 2018):

Assays:
Zymoseptoria tritici = test: Leaf blotch of wheat (SEPTTR) disease control on wheat seedlings; format: in vivo; design: key to SEPTTR 1DP, HV activity at 100 ppm (% control rating) / SEPTTR 3DC, HV activity at 100 ppm (% control rating) / SEPTTR disease control, 1DP / SEPTTR disease control, 3DC / SEPTTR 1DP disease control rating, HV activity / SEPTTR 3DC disease control rating, HV activity / SEPTTR 3DC, LV activity at 125.1 g/H (% Control rating) / SEPTTR 1DP, LV activity at 125.1 g/H (% Control rating) / SEPTTR 1DP disease control rating, LV activity at 125.1 g/H / SEPTTR 3DC disease control rating, LV activity at 125.1 g/H / SEPTTR 3DC disease control rating, HV activity at 100 ppm / SEPTTR 1DP disease control rating, HV activity at 100 ppm / HV activity at 100 ppm SEPTTR 3DC (disease control rating) / HV activity at 100 ppm SEPTTR 1DP (disease control rating) / LV activity at 125.1 g/H SEPTTR 1DP (disease control rating) / LV activity at 125.1 g/H SEPTTR 3DC (disease control rating): A: > 80; B: ≤ 80; C: Not Tested; D: No Activity Observed in the Reported Assay; settings: for SEPTTR 1DP disease control rating, LV activity at 125.1 g/H / SEPTTR 3DC disease control rating, LV activity at 125.1 g/H: low volume application; for SEPTTR 1DP disease control rating, LV activity at 125.1 g/H / SEPTTR 1DP disease control rating, HV activity at 100 ppm: 1 day protectant; for SEPTTR 3DC disease control rating, LV activity at 125.1 g/H / SEPTTR 3DC disease control rating, HV activity at 100 ppm: 3 day curative; for SEPTTR 1DP disease control rating, HV activity at 100 ppm / SEPTTR 3DC disease control rating, HV activity at 100 ppm: high volume application
Puccinia triticina = test: Wheat brown rust (PUCCRT) disease control on wheat seedlings; format: in vivo; design: key to PUCCRT 3DC, HV activity at 100 ppm (% control rating) / PUCCRT disease control, 3DC / PUCCRT 1DP disease control rating, HV activity / PUCCRT 3DC disease control rating, HV activity / PUCCRT 3DC, LV activity at 125.1 g/H (% Control rating) / PUCCRT 1DP, LV activity at 125.1 g/H (% Control rating) / PUCCRT 3DC disease control rating, LV activity at 125.1 g/H / PUCCRT 1DP disease control rating, LV activity at 125.1 g/H / PUCCRT 3DC disease control rating, HV activity at 100 ppm / PUCCRT 1DP disease control rating, HV activity at 100 ppm / HV activity at 100 ppm PUCCRT 3DC (disease control rating) / LV activity at 125.1 g/H PUCCRT 1DP (disease control rating) / LV activity at 125.1 g/H PUCCRT 3DC (disease control rating): A: > 80; B: ≤ 80; C: Not Tested; D: No Activity Observed in the Reported Assay; settings: for PUCCRT 1DP disease control rating, LV activity at 125.1 g/H / PUCCRT 3DC disease control rating, LV activity at 125.1 g/H: low volume application; for PUCCRT 1DP disease control rating, LV activity at 125.1 g/H / PUCCRT 1DP disease control rating, HV activity at 100 ppm: 1 day protectant; for PUCCRT 3DC disease control rating, LV activity at 125.1 g/H / PUCCRT 3DC disease control rating, HV activity at 100 ppm: 3 day curative; for PUCCRT 1DP disease control rating, HV activity at 100 ppm / PUCCRT 3DC disease control rating, HV activity at 100 ppm: high volume application

Compound	SEPTTR 1DP disease control rating, LV activity at 125.1 g/H (Zymoseptoria tritici)	SEPTTR 3DC disease control rating, LV activity at 125.1 g/H (Zymoseptoria tritici)	PUCCRT 1DP disease control rating, LV activity at 125.1 g/H (Puccinia triticina)	PUCCRT 3DC disease control rating, LV activity at 125.1 g/H (Puccinia triticina)	SEPTTR 1DP disease control rating, HV activity at 100 ppm (Zymoseptoria tritici)	SEPTTR 3DC disease control rating, HV activity at 100 ppm (Zymoseptoria tritici)	PUCCRT 1DP disease control rating, HV activity at 100 ppm (Puccinia triticina)	PUCCRT 3DC disease control rating, HV activity at 100 ppm (Puccinia triticina)
COc1ccnc(C(=O)N[C@@H](C)C(=O)O[C@@H](C)[C@H](OCC2CC2)c2cccc(-c3ccccc3)c2)c1OC(C)=O [Cmpd 875]	A (> 80)	A (> 80)	A (> 80)	A (> 80)				
CC[C@H](OC(=O)[C@H](C)NC(=O)c1nccc(OC)c1OCOC(C)=O)[C@H](Oc1ccccc1)C(C)C [Cmpd 877]	B (≤ 80)	B (≤ 80)	A (> 80)	A (> 80)				
COc1ccnc(C(=O)N[C@@H](C)C(=O)O[C@@H](C)[C@@H](OCC(C)C)c2ccccc2)c1OC(C)=O [Cmpd 878]	B (≤ 80)	B (≤ 80)	A (> 80)	A (> 80)				
COc1ccnc(C(=O)N[C@@H](C)C(=O)O[C@@H](C)[C@@H](OCC(C)C)c2ccccc2)c1OCOC(C)=O [Cmpd 880]	B (≤ 80)	B (≤ 80)	A (> 80)	A (> 80)				
COc1ccnc(C(=O)N[C@@H](C)C(=O)O[C@@H](C)[C@H](OCC2CC2)C2CCCCC2)c1OCOC(C)=O [Cmpd 881]	B (≤ 80)	B (≤ 80)	A (> 80)	A (> 80)				
COc1ccnc(C(=O)N[C@@H](C)C(=O)O[C@@H](C)[C@H](OCC2CC2)C2CCCCC2)c1OC(C)=O [Cmpd 882]	D	B (≤ 80)	A (> 80)	A (> 80)				
CCCO[C@@H](c1ccccc1)[C@H](C)OC(=O)[C@H](C)NC(=O)c1nccc(OC)c1OC(C)=O [Cmpd 883]	B (≤ 80)	A (> 80)	A (> 80)	A (> 80)				
COc1ccnc(C(=O)N[C@@H](C)C(=O)O[C@@H](C)[C@@H](OC)c2ccccc2)c1OC(C)=O [Cmpd 885]	D	B (≤ 80)	D	A (> 80)				
COc1ccnc(C(=O)N[C@@H](C)C(=O)O[C@@H](C)[C@H](OC)c2ccccc2)c1OC(C)=O [Cmpd 887]	D	A (> 80)	D	A (> 80)				
COc1ccnc(C(=O)NC(C)C(=O)OC(C)C(Oc2ccccc2)c2ccc(-c3ccccc3)cc2)c1OCOC(C)=O (stereo not shown) [Cmpd 905]	A (> 80)	A (> 80)	A (> 80)	B (≤ 80)				
COc1ccnc(C(=O)NC(C)C(=O)OC(C)C(Oc2ccccc2)C2CCCCC2)c1OCOC(C)=O (stereo not shown) [Cmpd 907]	B (≤ 80)	B (≤ 80)	A (> 80)	B (≤ 80)				
COc1ccnc(C(=O)NC(C)C(=O)OC(C)C(Oc2ccc(C)cc2Cl)C2CCCC2)c1OCOC(C)=O (stereo not shown) [Cmpd 913]	D	B (≤ 80)	A (> 80)	B (≤ 80)				
COc1ccnc(C(=O)NC(C)C(=O)OC(C)C(OCC2CC2)C2CCCC2)c1OCOC(C)=O (stereo not shown) [Cmpd 914]	B (≤ 80)	B (≤ 80)	A (> 80)	A (> 80)				
COc1ccnc(C(=O)N[C@@H](C)C(=O)O[C@@H](C)[C@H](Oc2ccc(Cl)cc2)C2CCCC2)c1OC(C)=O [Cmpd 921]	A (> 80)	B (≤ 80)	A (> 80)	A (> 80)				
COc1ccnc(C(=O)N[C@@H](C)C(=O)O[C@@H](C)[C@H](OCC(C)C)C2CCCC2)c1OC(C)=O [Cmpd 922]	A (> 80)	B (≤ 80)	A (> 80)	A (> 80)				
CCC[C@@H](Oc1ccc(C)cc1Cl)[C@H](C)OC(=O)[C@H](C)NC(=O)c1nccc(OC)c1O [Cmpd 999]					B (≤ 80)	B (≤ 80)	A (> 80)	A (> 80)
COc1cc(O[C@H](C2CC2)[C@H](C)OC(=O)[C@H](C)NC(=O)c2nccc(OC)c2O)ccc1Cl [Cmpd 1000]					B (≤ 80)	B (≤ 80)	A (> 80)	A (> 80)
COc1cc(O[C@@H]([C@H](C)OC(=O)[C@H](C)NC(=O)c2nccc(OC)c2O)C(C)(C)C)ccc1Cl [Cmpd 1001]					B (≤ 80)	D	A (> 80)	A (> 80)
COc1ccnc(C(=O)N[C@@H](C)C(=O)O[C@@H](C)[C@H](OCC2CC2)C2CC2)c1O [Cmpd 1002]					B (≤ 80)	B (≤ 80)	A (> 80)	A (> 80)
CCC[C@@H](OCC1CC1)[C@H](C)OC(=O)[C@H](C)NC(=O)c1nccc(OC)c1O [Cmpd 1003]					A (> 80)	B (≤ 80)	A (> 80)	A (> 80)
COc1ccnc(C(=O)N[C@@H](C)C(=O)O[C@@H](C)[C@H](OCC2CC2)C(C)(C)C)c1O [Cmpd 1004]					B (≤ 80)	B (≤ 80)	A (> 80)	A (> 80)
COc1ccnc(C(=O)N[C@@H](C)C(=O)O[C@@H](C)[C@H](Oc2ccc(C)cc2Cl)C2CC2)c1O [Cmpd 1005]					B (≤ 80)	B (≤ 80)	A (> 80)	A (> 80)
COc1ccnc(C(=O)N[C@@H](C)C(=O)O[C@@H](C)[C@H](Oc2ccc(C)cc2Cl)C(C)(C)C)c1O [Cmpd 1006]					B (≤ 80)	B (≤ 80)	A (> 80)	A (> 80)
COc1ccnc(C(=O)N[C@@H](C)C(=O)O[C@@H](C)[C@H](Oc2cccc(Cl)c2)C(C)(C)C)c1O [Cmpd 1007]					A (> 80)	B (≤ 80)	A (> 80)	A (> 80)
CCC[C@@H](Oc1ccc(Cl)c(OC)c1)[C@H](C)OC(=O)[C@H](C)NC(=O)c1nccc(OC)c1O [Cmpd 1008]					B (≤ 80)	B (≤ 80)	B (≤ 80)	B (≤ 80)
